Reference: US9469650B2, “Melampomagnolide B derivatives” (BOARD OF TRUSTEES OF THE UNIVERSITY OF ARKANSAS, priority 2013, dated 2016)

How the values were obtained:
[1] = system: HCT-116; test: panel of 60 human tumor cell lines, growth inhibition (Colon Cancer); details: HCT-116
[2] = system: U251; test: panel of 60 human tumor cell lines, growth inhibition (CNS Cancer); details: U251
[3] = system: NCI-H460; test: panel of 60 human tumor cell lines, growth inhibition (Non-Small Cell Lung Cancer); details: NCI-H460
[4] = system: NCI-H322M; test: as above
[5] = system: PC-3; test: panel of 60 human tumor cell lines, growth inhibition (Prostate Cancer); details: PC-3
[6] = system: KM12; test: panel of 60 human tumor cell lines, growth inhibition (Colon Cancer); details: KM12
[7] = system: HT29; test: as above; details: HT29
[8] = system: MDA-MB-231/ATCC; test: panel of 60 human tumor cell lines, growth inhibition (Breast Cancer); details: MDA-MB-231/ATCC
[9] = system: MDA-MB-435; test: panel of 60 human tumor cell lines, growth inhibition (Melanoma); details: MDA-MB-435
[10] = system: NCI/ADR-RES; test: panel of 60 human tumor cell lines, growth inhibition (Ovarian Cancer)
[11] = system: SF-539; test: panel of 60 human tumor cell lines, growth inhibition (CNS Cancer); details: SF-539
[12] = system: DU-145; test: panel of 60 human tumor cell lines, growth inhibition (Prostate Cancer); details: DU-145
[13] = system: SK-MEL-2; test: panel of 60 human tumor cell lines, growth inhibition (Melanoma); details: SK-MEL-2
[14] = system: HOP-62; test: panel of 60 human tumor cell lines, growth inhibition (Non-Small Cell Lung Cancer); details: HOP-62
[15] = system: A498; test: panel of 60 human tumor cell lines, growth inhibition (Renal Cancer); details: A498
[16] = system: 786-0; test: as above; details: 786-0
[17] = system: OVCAR-5; test: panel of 60 human tumor cell lines, growth inhibition (Ovarian Cancer); details: OVCAR-5
[18] = system: SN12C; test: panel of 60 human tumor cell lines, growth inhibition (Renal Cancer)

## C=C1C(=O)O[C@H]2[C@H]1CC/C(COC(=O)CCC(=O)N1CCC(C)CC1)=C\CC[C@@]1(C)O[C@@H]21 [JVM 2-70]
[1]; Log10 Concentration −4.0
  Percent Growth: −93%
[1]; Log10 Concentration −5.0
  Percent Growth: −46%
[1]; Log10 Concentration −6.0
  Percent Growth: 79%
[1]; Log10 Concentration −7.0
  Percent Growth: 95%
[1]; Log10 Concentration −8.0
  Percent Growth: 91%
[1]; NCI five dose
  GI50: 1.69 µM
  TGI: 4.25E−6
[2]; Log10 Concentration −4.0
  Percent Growth: −90%
[2]; Log10 Concentration −5.0
  Percent Growth: 90%
[2]; Log10 Concentration −6.0
  Percent Growth: 99%
[2]; Log10 Concentration −7.0
  Percent Growth: 95%
[2]; Log10 Concentration −8.0
  Percent Growth: 95%
[2]; NCI five dose
  GI50: 16.7 µM
  TGI: 3.16E−5
[3]; Log10 Concentration −4.0
  Percent Growth: −57%
[3]; Log10 Concentration −5.0
  Percent Growth: 77%
[3]; Log10 Concentration −6.0
  Percent Growth: 99%
[3]; Log10 Concentration −7.0
  Percent Growth: 101%
[3]; Log10 Concentration −8.0
  Percent Growth: 100%
[3]; NCI five dose
  GI50: 16 µM
  TGI: 3.76E−5
[4]; Log10 Concentration −4.0
  Percent Growth: −83%
[4]; Log10 Concentration −5.0
  Percent Growth: 93%
[4]; Log10 Concentration −6.0
  Percent Growth: 102%
[4]; Log10 Concentration −7.0
  Percent Growth: 108%
[4]; Log10 Concentration −8.0
  Percent Growth: 102%
[4]; NCI five dose
  GI50: 17.6 µM
  TGI: 3.39E−5
[5]; Log10 Concentration −4.0
  Percent Growth: −72%
[5]; Log10 Concentration −5.0
  Percent Growth: 66%
[5]; Log10 Concentration −6.0
  Percent Growth: 94%
[5]; Log10 Concentration −7.0
  Percent Growth: 93%
[5]; Log10 Concentration −8.0
  Percent Growth: 94%
[5]; NCI five dose
  GI50: 13 µM
  TGI: 3.00E−5
[6]; Log10 Concentration −4.0
  Percent Growth: −87%
[6]; Log10 Concentration −5.0
  Percent Growth: 62%
[6]; Log10 Concentration −6.0
  Percent Growth: 98%
[6]; Log10 Concentration −7.0
  Percent Growth: 102%
[6]; Log10 Concentration −8.0
  Percent Growth: 102%
[6]; NCI five dose
  GI50: 12.1 µM
  TGI: 2.61E−5
[7]; Log10 Concentration −4.0
  Percent Growth: −87%
[7]; Log10 Concentration −5.0
  Percent Growth: 19%
[7]; Log10 Concentration −6.0
  Percent Growth: 103%
[7]; Log10 Concentration −7.0
  Percent Growth: 106%
[7]; Log10 Concentration −8.0
  Percent Growth: 99%
[7]; NCI five dose
  GI50: 4.28 µM
  TGI: 1.51E−5
[8]; Log10 Concentration −4.0
  Percent Growth: −85%
[8]; Log10 Concentration −5.0
  Percent Growth: 41%
[8]; Log10 Concentration −6.0
  Percent Growth: 102%
[8]; Log10 Concentration −7.0
  Percent Growth: 97%
[8]; Log10 Concentration −8.0
  Percent Growth: 105%
[8]; NCI five dose
  GI50: 7.13 µM
  TGI: 2.12E−5
[9]; Log10 Concentration −4.0
  Percent Growth: −72%
[9]; Log10 Concentration −5.0
  Percent Growth: 32%
[9]; Log10 Concentration −6.0
  Percent Growth: 90%
[9]; Log10 Concentration −7.0
  Percent Growth: 95%
[9]; Log10 Concentration −8.0
  Percent Growth: 89%
[9]; NCI five dose
  GI50: 4.84 µM
  TGI: 2.03E−5
[10]; Log10 Concentration −4.0
  Percent Growth: −52%
[10]; Log10 Concentration −5.0
  Percent Growth: 64%
[10]; Log10 Concentration −6.0
  Percent Growth: 99%
[10]; Log10 Concentration −7.0
  Percent Growth: 104%
[10]; Log10 Concentration −8.0
  Percent Growth: 95%
[10]; NCI five dose
  GI50: 13.1 µM
  TGI: 3.55E−5
[11]; Log10 Concentration −4.0
  Percent Growth: −90%
[11]; Log10 Concentration −5.0
  Percent Growth: −20%
[11]; Log10 Concentration −6.0
  Percent Growth: 92%
[11]; Log10 Concentration −7.0
  Percent Growth: 97%
[11]; Log10 Concentration −8.0
  Percent Growth: 93%
[11]; NCI five dose
  GI50: 2.35 µM
  TGI: 6.58E−6
[11]; read-out: LC50, NCI five dose
  CC50: 26.5 µM
[12]; Log10 Concentration −4.0
  Percent Growth: −89%
[12]; Log10 Concentration −5.0
  Percent Growth: 26%
[12]; Log10 Concentration −6.0
  Percent Growth: 95%
[12]; Log10 Concentration −7.0
  Percent Growth: 106%
[12]; Log10 Concentration −8.0
  Percent Growth: 107%
[12]; NCI five dose
  GI50: 4.44 µM
  TGI: 1.68E−5
[13]; Log10 Concentration −4.0
  Percent Growth: −82%
[13]; Log10 Concentration −5.0
  Percent Growth: 68%
[13]; Log10 Concentration −6.0
  Percent Growth: 108%
[13]; Log10 Concentration −7.0
  Percent Growth: 112%
[13]; Log10 Concentration −8.0
  Percent Growth: 106%
[13]; NCI five dose
  GI50: 13.1 µM
  TGI: 2.83E−5
[14]; Log10 Concentration −4.0
  Percent Growth: −68%
[14]; Log10 Concentration −5.0
  Percent Growth: 78%
[14]; Log10 Concentration −6.0
  Percent Growth: 91%
[14]; Log10 Concentration −7.0
  Percent Growth: 92%
[14]; Log10 Concentration −8.0
  Percent Growth: 86%
[14]; NCI five dose
  GI50: 15.5 µM
  TGI: 3.41E−5
[15]; Log10 Concentration −4.0
  Percent Growth: −92%
[15]; Log10 Concentration −5.0
  Percent Growth: 29%
[15]; Log10 Concentration −6.0
  Percent Growth: 67%
[15]; Log10 Concentration −7.0
  Percent Growth: 54%
[15]; Log10 Concentration −8.0
  Percent Growth: 58%
[15]; NCI five dose
  GI50: 2.77 µM
  TGI: 1.73E−5
[16]; Log10 Concentration −4.0
  Percent Growth: −78%
[16]; Log10 Concentration −5.0
  Percent Growth: 39%
[16]; Log10 Concentration −6.0
  Percent Growth: 100%
[16]; Log10 Concentration −7.0
  Percent Growth: 98%
[16]; Log10 Concentration −8.0
  Percent Growth: 90%
[16]; NCI five dose
  GI50: 6.64 µM
  TGI: 2.17E−5
[17]; Log10 Concentration −4.0
  Percent Growth: −89%
[17]; Log10 Concentration −5.0
  Percent Growth: 41%
[17]; Log10 Concentration −6.0
  Percent Growth: 87%
[17]; Log10 Concentration −7.0
  Percent Growth: 87%
[17]; Log10 Concentration −8.0
  Percent Growth: 86%
[17]; NCI five dose
  GI50: 6.36 µM
  TGI: 2.06E−5
[18]; Log10 Concentration −4.0
  Percent Growth: −82%
[18]; Log10 Concentration −5.0
  Percent Growth: 30%
[18]; Log10 Concentration −6.0
  Percent Growth: 92%
[18]; Log10 Concentration −7.0
  Percent Growth: 93%
[18]; Log10 Concentration −8.0
  Percent Growth: 97%
[18]; NCI five dose
  GI50: 4.8 µM
  TGI: 1.86E−5
